# According to patent publication US7767398B2, “Means and methods for diagnosing and treating affective disorders” (Affectis Pharmaceuticals AG, priority 2003, dated 2010):
# Columns and labels:
# P2X7R [1] = target: T1, P2X7R (Rattus norvegicus, UniProt Q64663); conditions: concentrations of 10 to 300 μM; cited from earlier work
# T1 sequence (Q64663 1-595): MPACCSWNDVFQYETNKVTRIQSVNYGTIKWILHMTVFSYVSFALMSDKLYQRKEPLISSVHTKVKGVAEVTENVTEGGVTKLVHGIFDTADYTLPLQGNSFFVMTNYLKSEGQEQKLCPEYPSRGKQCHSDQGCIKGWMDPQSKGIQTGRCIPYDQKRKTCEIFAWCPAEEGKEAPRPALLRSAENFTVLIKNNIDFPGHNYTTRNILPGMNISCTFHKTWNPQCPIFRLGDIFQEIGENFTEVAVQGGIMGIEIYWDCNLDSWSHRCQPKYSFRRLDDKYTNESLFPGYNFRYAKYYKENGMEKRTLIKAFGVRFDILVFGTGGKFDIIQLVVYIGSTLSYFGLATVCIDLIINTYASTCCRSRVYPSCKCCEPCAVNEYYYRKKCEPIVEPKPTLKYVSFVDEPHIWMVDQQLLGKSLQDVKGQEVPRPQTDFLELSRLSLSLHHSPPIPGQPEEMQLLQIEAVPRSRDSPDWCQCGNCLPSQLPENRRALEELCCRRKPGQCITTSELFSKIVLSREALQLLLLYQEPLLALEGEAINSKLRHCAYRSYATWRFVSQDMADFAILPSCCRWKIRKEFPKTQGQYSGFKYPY
# P2X7R [2] = conditions: cited from earlier work
# other P2X receptors = conditions: cited from earlier work
# mice = assay: Porsolt's forced swim test; assay type: in vivo, mouse
# Experimental: Further validation of role of P2X7R in affective disorders was performed by examining its expression pattern in response to stress and treatment with antidepressant drugs. […] In parallel, a control group of mice was given vehicle solution (i.e. without paroxetine) using the same treatment regiment while a second control group of mice was left undisturbed and stress-free (i.e. untreated) during the same period of the experiments. At the end of the long-term treatment, part of the mice of each experimental group were tested in the dark/light box (test of anxiety behaviour) and in the Porsolt's forced swim test (test of depressive-like behaviour) to confirm the effectiveness of the treatment (FIG. 5). […] The other part of the experimental groups (i.e. mice without test experience) were decapitated, brains rapidly removed and frozen at −80° C. until usage.
# The effects of P2X7R inhibition on depressive-like behaviour was assessed 24 hours and 48 hours after infusion of siRNA, control or vehicle according to the standard test paradigm, the Porsolt's forced swim test (Porsolt et al., Arch. Int. Pharmacodym. 229 (1977), 327-336; Porsolt, Rev. Neurosci. 11 (2000), 53-58). […] Compared to vehicle application, no influence of control double stranded RNA (5′-[…]-3′) on floating behaviour (passive stress coping) was detected. […] This interpretation becomes moreover evident when the effects of antidepressants on passive stress coping behaviour in the forced swim test are visualized (FIG. 5). Passive stress coping behaviour increased after acute intrahippocampal injection (bilateral, dentate gyrus) of siRNA targeting P2X7R. The Porsolt's forced swim test is a standard test used to assess the effectiveness of antidepressants and it has been proven by many studies that the test is selectively sensitive for these effects, given that the right animal model is used. The paradigm has been widely used to test pharmaceutical compounds and to validate animal models of depression, which show an increase in passive behaviour as do the mice where P2X7R has been inhibited (siRNA).
# The forced swim test is a standard test that measures primary stress-induced reductions in avoidance or escape, termed behavioural despair. The test is used to determine the effectiveness of antidepressants, test new pharmaceutical compounds and validate animal models of depression (Porsolt et al., Arch. Int. Pharmacodym. 229 (1977), 327-336; Porsolt, Rev. Neurosci. 11 (2000), 53-58; Rénéric et al., Behav. Brain Res. 136 (2002), 521-532; Page et al., Psychopharmacology 165 (2003), 194-201; Kelliher et al., Psychoneuroendocrinology 28 (2003), 332-347). The test consists of placing a mouse for a period of 5 minutes into a glass cylinder containing water. Under such circumstances, the mouse cannot touch the bottom of the cylinder and is thus forced to swim. Time, latency and frequency of struggling versus floating are scored as behavioural parameters. […] Increased struggling (i.e. active attempts to escape) indicates active coping behaviour that can be interpreted as an improvement of depression-like symptoms. For example, treatment with serotonergic antidepressants reduce the total time spent floating (Borsini, Neurosci. Biobehav. Rev. 19 (1995), 377-395; Redrobe and Bourin, Psychopharmacology 138 (1998), 198-206, and in parallel increases the time of active behaviour (i.e. swimming or struggling; Lucki et al., Psychopharmacology 155 (2001), 315-322).
# The behaviour of individual mice was assessed using the Porsolt's forced swim test 24 hours after injection of vehicle solution, KN-62, or oATP. A pre-exposure of 5 minutes to the test was performed 15-17 minutes after administration of vehicle, KN-62, or oATP. A description of the Porsolt's forced swim test is given in example 9. […]
# human P2X7R = target: T2, human P2X7R (Homo sapiens, UniProt Q99572); assay: Calcium entry in HT-22 cells overexpressing human P2X7R (Fluo-4 AM); assay type: cell-based; conditions: 20 μM BzATP or 50 μM tenidap
# T2 construct: expressed in transfected cells
# T2 sequence (Q99572 1-595): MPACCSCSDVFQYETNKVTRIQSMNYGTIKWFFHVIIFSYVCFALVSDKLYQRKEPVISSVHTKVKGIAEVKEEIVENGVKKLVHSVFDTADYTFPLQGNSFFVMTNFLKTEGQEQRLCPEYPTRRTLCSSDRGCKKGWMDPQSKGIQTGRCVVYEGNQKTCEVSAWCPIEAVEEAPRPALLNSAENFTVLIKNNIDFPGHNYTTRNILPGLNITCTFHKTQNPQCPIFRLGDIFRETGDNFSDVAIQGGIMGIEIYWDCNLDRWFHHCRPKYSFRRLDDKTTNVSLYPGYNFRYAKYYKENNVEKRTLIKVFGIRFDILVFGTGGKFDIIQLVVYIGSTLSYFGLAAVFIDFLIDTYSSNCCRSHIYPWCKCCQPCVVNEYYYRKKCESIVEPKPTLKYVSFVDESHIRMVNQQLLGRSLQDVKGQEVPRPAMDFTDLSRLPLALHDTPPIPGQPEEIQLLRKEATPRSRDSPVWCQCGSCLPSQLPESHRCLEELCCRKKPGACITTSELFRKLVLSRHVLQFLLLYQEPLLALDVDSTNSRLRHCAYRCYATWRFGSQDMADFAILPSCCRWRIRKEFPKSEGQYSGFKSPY
# Text: Yet another method for identifying P2X7R agonists was devised by generating a immortalised mouse cell line that overexpresses the human P2X7R gene under the control of the human cytomegalovirus (CMV) early promoter/enhancer region. The human P2X7R cDNA was inserted into the pcDNA3.1 vector (Invitrogen) and transfected into the mouse hippocampal cell line HT-22 using Lipofectamine (Invitrogen) according to the manufacturer's specifications. One day after transfection, culture medium containing 500 μg/ml G418 was added to the cells. Resistant clones were separately isolated and cultured 14 days after applying the selection medium.
# The agonistic activity of a compound was evaluated by measuring calcium entry in the cells that overexpress the human P2X7R. Cells were cultured in 96 well plates and incubated at 37° C. with 5% C02 DMEM with 10% foetal calf serum (Gibco) until they reached confluence. Cells were then loaded for one hour with 10 μM of Fluo4 AM (Molecular Probes). Fluo-4 AM is a fluorescent dye that binds to intracellular calcium. […] Agonist activity was detected by measuring an increase in calcium influx which results in increased binding to Fluo4 AM and increased fluorescence. Changes in fluorescence signal are measured using a Fluostar Optima plate reader (BMG biotech). […] Thus, both compound stimulated the activity of P2X7R which results in an influx of ions into the cells.
# P2X7R [3] = assay type: in vivo, mouse
# Experimental: The brains from stress-free mice were shock frozen, cut into 16 μm slices and fixed with paraformaldehyde for 5 minutes. The sections were blocked for 30 minutes at room temperature with 1:10 horse serum. All antibodies were diluted in TBST buffer (Tris-buffered saline with 0.05% Tween-20). The first antibody was used in a dilution 1:200 and incubated overnight. All washes were performed with TBST buffer. As a secondary antibody, an anti-goat IgG biotinylated (Vector Laboratories) was used and detection was performed using the streptavidin-biotin-horse-radish peroxidase complex system (Vector Laboratories) in combination with diaminobencidine. Slides were counterstained with toluidine blue using standard procedures. The same procedure in the absence of the primary antibody was performed as a negative control. As a positive control to test the Preservation of the tissue was verified with an antibody specific for the protein Patched1 (Santa Cruz Biotechnology). Patched1 was used as positive control since it stains all relevant brain structures and is not affected by stress or antidepressants.
# At the end of the experiment, the mice were sacrificed and the brains were examined to confirm the location and efficiency of the siRNA injections. For this purpose the brains were cut into sections and the slides were stained by immunohistochemistry using the above mentioned protocols. […]
# [4] = 100 nM KN-62 or 10 μM oATP, 1 μl each side, dentate gyrus, 24 hours after injection, DBA/201a mice
compound,measurement,setting,value
CC(C)NCC(O)COc1cccc2ccccc12 (racemic) [DL-propanolol],opening of the cation channel activity of P2X7R,P2X7R [1],without affecting
same,pore-forming activity of P2X7R,P2X7R [1],inhibit the pore-forming activity
Nc1ncnc2c1ncn2[C@@H]1O[C@H](COP(=O)(O)OP(=O)(O)OP(=O)(O)O)[C@@H](O)[C@H]1O [ATP],levels of ATP required to achieve activation of P2X7R,P2X7R [2],> 1 mM
same,ATP concentrations at which other P2X receptors activate,other P2X receptors,≤ 100 µM
CC(C)NC[C@@H](O)COc1cccc2ccccc12 [D-propanolol],opening of the cation channel activity of P2X7R,P2X7R [1],without affecting
same,pore-forming activity of P2X7R,P2X7R [1],inhibit the pore-forming activity
"CN([C@@H](Cc1ccc(OS(=O)(=O)c2cccc3cnccc23)cc1)C(=O)N1CCN(c2ccccc2)CC1)S(=O)(=O)c1cccc2cnccc12 [KN-62, 1-(N,O-bis[5-isoquinolinesulphonyl]-N-methyl-L-tyrosyl)-4-phenylpiperazine]","active escape attempts (time, frequency, latency of struggling) in the forced swim test",mice; [4],no changes
same,"passive behaviour (time, frequency, latency of floating) in the forced swim test",mice; [4],no changes
CC(CCc1ccccc1)NCC(O)c1ccc(O)c(C(N)=O)c1 (stereo not drawn) [labetolol],opening of the cation channel activity of P2X7R,P2X7R [1],without affecting
same,pore-forming activity of P2X7R,P2X7R [1],inhibit the pore-forming activity
Fc1ccc([C@@H]2CCNC[C@H]2COc2ccc3c(c2)OCO3)cc1 [paroxetine],passive stress coping behaviour (floating) in the forced swim test,"mice; paroxetine by gavage, 10 mg/kg bodyweight twice per day, 28 days, male mice",decreased
"NC(=O)N1C(=O)/C(=C(\O)c2cccs2)c2cc(Cl)ccc21 [tenidap, 5-chloro-2,3-dihydro-2-oxo-3-(2-thienylcarbonyl)-indole-1-carboxamide]",calcium influx (Fluo-4 AM fluorescence intensity),human P2X7R,rapid increase in fluorescence intensity
"P2X7R specific siRNA: double stranded siRNA, 5′-GUGGGUCUUGCACAUGAUCTT-3′ and 5′-GAUCAUGUGCAAGACCCACTT-3′ annealed (chemistry not given here)",local inflammation or infiltration at the hippocampus,"P2X7R [3]; mouse, in vivo",did not produce any sign of local inflammation or infiltration
same,inhibition of P2X7R protein expression,"P2X7R [3]; siRNA injected near the dentate gyrus, compared to vehicle or control double stranded RNA",80%
same,floating behaviour (passive stress coping) in the forced swim test,"mice; intrahippocampal bilateral (dentate gyrus), 0.1 nmol/μl, 1 μl per side, 24 hours and 48 hours after infusion",significant increase in passive behaviour
